Source: ChEMBL document CHEMBL1201862, “PubChem BioAssay data set” (2004)
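Compound exposure: 48 hours, 5 concentrations, 96-well plates. Here, GI50 denotes the concentration required for 50% inhibition of growth.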 Active and inactive are the calls of the source. No stated cut-off is given here; in the data, active = GI50 up to about 1.1 µM and inactive = higher.

Experiments:
Assay in all cases: NCI-60 cell line screen, 48 h
A549 = system: A549
BT-549 = system: BT-549
SNB-19 = system: SNB-19
CAKI-1 = system: CAKI-1
LOX IMVI = system: LOX IMVI
HT-29 = system: HT-29
EKVX = system: EKVX
MDA-MB-435 = system: MDA-MB-435
NCI-H522 = system: NCI-H522
SK-MEL-5 = system: SK-MEL-5
KM12 = system: KM12
MDA-N = system: MDA-N
NCI-H23 = system: NCI-H23
MDA-MB-231 = system: MDA-MB-231
M14 = system: M14
SF-268 = system: SF-268
OVCAR-3 = system: OVCAR-3
UO-31 = system: UO-31
HCC 2998 = system: HCC 2998

Measured: GI50

NC(Cc1cc(Br)c(O)c(Br)c1)C(=O)O (configuration not stated)
inactive: A549 > 100 µM | BT-549 > 100 µM | SNB-19 > 100 µM | CAKI-1 > 100 µM | LOX IMVI > 100 µM | HT-29 > 100 µM | EKVX > 100 µM | MDA-MB-435 > 100 µM | NCI-H522 > 100 µM | SK-MEL-5 > 100 µM | KM12 > 100 µM | MDA-N > 100 µM | NCI-H23 > 100 µM | MDA-MB-231 > 100 µM | M14 > 100 µM | SF-268 > 100 µM | OVCAR-3 > 100 µM

Cn1c(=S)c2nc(SCCN3CCCC3)[nH]c2n(C)c1=O
inactive: UO-31 > 100 µM | A549 > 100 µM | BT-549 > 100 µM | SNB-19 > 100 µM | CAKI-1 > 100 µM | LOX IMVI > 100 µM | HT-29 > 100 µM | EKVX 76 µM | MDA-MB-435 > 100 µM | NCI-H522 > 100 µM | SK-MEL-5 > 100 µM | KM12 > 100 µM | MDA-N > 100 µM | NCI-H23 > 100 µM | MDA-MB-231 > 100 µM | M14 > 100 µM | SF-268 > 100 µM | OVCAR-3 > 100 µM

Cc1nc2c(Br)cc(Br)cc2c(=O)n1-c1ccccc1N
inactive: UO-31 20.5 µM | A549 33.5 µM | BT-549 27.5 µM | SNB-19 48.2 µM | CAKI-1 28.4 µM | HCC 2998 35.6 µM | LOX IMVI 27.5 µM | HT-29 23.9 µM | EKVX 41 µM | MDA-MB-435 39.4 µM | SK-MEL-5 18.3 µM | KM12 51.5 µM | MDA-N 50.9 µM | MDA-MB-231 47.4 µM | M14 35.4 µM | SF-268 50.1 µM | OVCAR-3 63.5 µM

CC1(C)CC(=O)C(=CNc2nc(-c3ccc(Br)cc3)cs2)C(=O)C1
inactive: UO-31 21.9 µM | A549 51.4 µM | BT-549 17.7 µM | SNB-19 33.5 µM | CAKI-1 24.9 µM | HCC 2998 28.9 µM | LOX IMVI 20.9 µM | HT-29 29.9 µM | EKVX 38.7 µM | MDA-MB-435 25.6 µM | SK-MEL-5 32.6 µM | KM12 34 µM | MDA-N 37.8 µM | NCI-H23 25.8 µM | MDA-MB-231 31.8 µM | M14 20.5 µM | OVCAR-3 22.3 µM

O=c1[nH]c2cc([N+](=O)[O-])c(Nc3c4ccccc4nc4ccccc34)c([N+](=O)[O-])c2[nH]1
inactive: UO-31 2.09 µM | A549 2.69 µM | BT-549 6.53 µM | SNB-19 5.02 µM | CAKI-1 2.19 µM | HCC 2998 1.73 µM | LOX IMVI 2.37 µM | HT-29 1.98 µM | EKVX 2.47 µM | MDA-MB-435 2.77 µM | NCI-H522 1.46 µM | SK-MEL-5 2.45 µM | KM12 2.26 µM | NCI-H23 3.49 µM | MDA-MB-231 3.21 µM | M14 2.12 µM | SF-268 3.15 µM | OVCAR-3 2.58 µM

C1=N\CCNCCNCC/N=C\c2ccc(cc2)OCc2cccc(n2)COc2ccc/1cc2
inactive: UO-31 > 100 µM | A549 > 100 µM | BT-549 > 100 µM | SNB-19 > 100 µM | CAKI-1 > 100 µM | HT-29 > 100 µM | EKVX > 100 µM | MDA-MB-435 75.2 µM | SK-MEL-5 51.4 µM | KM12 33.2 µM | MDA-N > 100 µM | NCI-H23 86.3 µM | MDA-MB-231 > 100 µM | M14 > 100 µM | SF-268 83.6 µM | OVCAR-3 > 100 µM

CCOC(=O)C(C(=O)OCC)=C1SC(=N\c2ccccc2)/C(=N/c2ccccc2)N1c1ccccc1
inactive: UO-31 > 100 µM | A549 > 100 µM | BT-549 > 100 µM | SNB-19 > 100 µM | CAKI-1 > 100 µM | HCC 2998 45.8 µM | HT-29 82.2 µM | EKVX > 100 µM | MDA-MB-435 > 100 µM | NCI-H522 76.6 µM | SK-MEL-5 52.1 µM | KM12 > 100 µM | MDA-N > 100 µM | NCI-H23 > 100 µM | MDA-MB-231 > 100 µM | SF-268 48.3 µM | OVCAR-3 35.8 µM

Cc1ccc2c(=O)c(-c3nnc(NC4CCCCC4)s3)c[nH]c2n1
inactive: UO-31 > 100 µM | A549 > 100 µM | BT-549 > 100 µM | SNB-19 > 100 µM | CAKI-1 > 100 µM | LOX IMVI > 100 µM | HT-29 > 100 µM | EKVX > 100 µM | MDA-MB-435 > 100 µM | NCI-H522 > 100 µM | SK-MEL-5 40.9 µM | KM12 > 100 µM | MDA-N 81.7 µM | NCI-H23 > 100 µM | MDA-MB-231 > 100 µM | M14 > 100 µM | SF-268 > 100 µM | OVCAR-3 > 100 µM

CC(=N\c1ccncc1)/C(C)=N/c1ccncc1
inactive: UO-31 17 µM | A549 > 100 µM | BT-549 23.3 µM | SNB-19 27.5 µM | CAKI-1 16.8 µM | HCC 2998 19 µM | LOX IMVI 19.5 µM | HT-29 19 µM | EKVX 20.7 µM | MDA-MB-435 29.2 µM | NCI-H522 16.3 µM | SK-MEL-5 19.5 µM | KM12 38.3 µM | NCI-H23 16.5 µM | MDA-MB-231 21.8 µM | M14 18.7 µM | SF-268 30.4 µM | OVCAR-3 15.4 µM

CC(C)/C(Cl)=N\OC(=O)Nc1ccc(S(N)(=O)=O)cc1
inactive: UO-31 16.6 µM | A549 20 µM | BT-549 2.75 µM | SNB-19 > 53.2 µM | CAKI-1 17.3 µM | HCC 2998 18 µM | LOX IMVI 2.89 µM | HT-29 22.4 µM | EKVX 18.5 µM | NCI-H522 1.21 µM | SK-MEL-5 15.9 µM | KM12 18.4 µM | MDA-N 18.2 µM | NCI-H23 19.2 µM | MDA-MB-231 12.7 µM | M14 8.13 µM | SF-268 23.9 µM | OVCAR-3 14.3 µM

CC1CC(N)=Nc2ccccc2N1Cc1ccccc1 (configuration not stated)
inactive: UO-31 21.9 µM | A549 17.4 µM | BT-549 13.3 µM | SNB-19 15.9 µM | CAKI-1 12.2 µM | HT-29 14.4 µM | EKVX 22.1 µM | MDA-MB-435 13.9 µM | NCI-H522 12.7 µM | SK-MEL-5 14.7 µM | KM12 15 µM | MDA-N 18 µM | NCI-H23 16.3 µM | MDA-MB-231 14.4 µM | M14 15.6 µM | SF-268 13.6 µM | OVCAR-3 12.4 µM

COc1cc(C2C(Cl)C(=O)N2c2ccc(Br)cc2)cc(I)c1O (configuration not stated)
inactive: UO-31 31.1 µM | A549 42.4 µM | BT-549 45.1 µM | SNB-19 73.5 µM | CAKI-1 47.9 µM | LOX IMVI 6.04 µM | HT-29 87.1 µM | EKVX 20.7 µM | MDA-MB-435 47.5 µM | NCI-H522 18.7 µM | SK-MEL-5 43.2 µM | KM12 37.3 µM | MDA-N 36.6 µM | NCI-H23 52.8 µM | MDA-MB-231 18.9 µM | M14 33 µM | SF-268 89.1 µM | OVCAR-3 45.3 µM

COc1cc2c(cc1O)-c1c(OC)c(O)cc3c1C(C2)N(C)CC3 (configuration not stated)
inactive: UO-31 > 100 µM | A549 > 100 µM | BT-549 > 100 µM | SNB-19 > 100 µM | CAKI-1 > 100 µM | LOX IMVI > 100 µM | HT-29 > 100 µM | EKVX > 100 µM | MDA-MB-435 > 100 µM | NCI-H522 > 100 µM | SK-MEL-5 > 100 µM | KM12 > 100 µM | MDA-N > 100 µM | NCI-H23 > 100 µM | MDA-MB-231 > 100 µM | M14 > 100 µM | SF-268 > 100 µM | OVCAR-3 > 100 µM

O=C=NCCCCCCN1C(=O)N2C(c3ccccc3)N(CCCCCCN=C=O)C(=O)N2C1c1ccccc1 (configuration not stated)
inactive: UO-31 > 100 µM | A549 > 100 µM | BT-549 > 100 µM | SNB-19 > 100 µM | CAKI-1 > 100 µM | HCC 2998 > 100 µM | LOX IMVI > 100 µM | HT-29 > 100 µM | EKVX > 100 µM | MDA-MB-435 > 100 µM | SK-MEL-5 > 100 µM | KM12 > 100 µM | MDA-N > 100 µM | NCI-H23 > 100 µM | MDA-MB-231 > 100 µM | M14 > 100 µM | SF-268 > 100 µM | OVCAR-3 > 100 µM

N#CC(C/C=C/c1ccccc1)NNC(=O)c1c(Cl)c(Cl)c(Cl)c(Cl)c1-c1nc2cc(C(=O)c3ccccc3)ccc2[nH]1 (configuration not stated)
inactive: UO-31 21.5 µM | A549 18.1 µM | BT-549 20.7 µM | SNB-19 14.8 µM | CAKI-1 31.4 µM | LOX IMVI 13.5 µM | HT-29 16.1 µM | EKVX 15.1 µM | MDA-MB-435 4.11 µM | SK-MEL-5 10.2 µM | KM12 23.4 µM | MDA-N 3.24 µM | NCI-H23 17.9 µM | MDA-MB-231 16.1 µM | M14 14.9 µM | OVCAR-3 7.53 µM

CC(C)[C@H]1C(=O)O[B@-](F)(c2ccccc2)/[N+]1=C\N(C)C
inactive: UO-31 > 100 µM | A549 > 100 µM | BT-549 > 100 µM | SNB-19 > 100 µM | HCC 2998 > 100 µM | LOX IMVI > 100 µM | HT-29 > 100 µM | EKVX > 100 µM | MDA-MB-435 > 100 µM | SK-MEL-5 > 100 µM | MDA-N > 100 µM | NCI-H23 > 100 µM | MDA-MB-231 > 100 µM | M14 > 100 µM | SF-268 > 100 µM | OVCAR-3 > 100 µM
